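Following 48 hours of exposure in 96-well plates, responses at five concentrations were used to interpolate endpoints linearly. At the GI50, growth is halved.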 Calls of active or inactive are those of the source. Cut-off read from the data, not from the text of the source: active = GI50 up to about 1.1 µM and inactive = higher.
How the values were obtained:
Experiment in all cases: inhibition of tumour cell growth, NCI panel, 48 h
OVCAR-4 = test system: OVCAR-4
MDA-MB-435 = test system: MDA-MB-435
RPMI-8226 = test system: RPMI-8226
SNB-75 = test system: SNB-75
SF-295 = test system: SF-295
RXF 393 = test system: RXF 393
DU-145 = test system: DU-145
SW-620 = test system: SW-620
NCI-H226 = test system: NCI-H226
OVCAR-8 = test system: OVCAR-8
CAKI-1 = test system: CAKI-1
MDA-MB-231 = test system: MDA-MB-231
SK-OV-3 = test system: SK-OV-3
UO-31 = test system: UO-31
HOP-62 = test system: HOP-62
MDA-N = test system: MDA-N
SK-MEL-28 = test system: SK-MEL-28
CCRF-CEM = test system: CCRF-CEM
786-0 = test system: 786-0
HCT-116 = test system: HCT-116
SK-MEL-5 = test system: SK-MEL-5
ACHN = test system: ACHN
UACC-257 = test system: UACC-257
TK-10 = test system: TK-10
T47D = test system: T47D
K562 = test system: K562
SN12C = test system: SN12C
BT-549 = test system: BT-549
HOP-92 = test system: HOP-92
SF-268 = test system: SF-268
HT-29 = test system: HT-29
U-251 = test system: U-251
HCT-15 = test system: HCT-15
A549 = test system: A549
HCC 2998 = test system: HCC 2998
NCI/ADR-RES = test system: NCI/ADR-RES
OVCAR-3 = test system: OVCAR-3
MOLT-4 = test system: MOLT-4
LOX IMVI = test system: LOX IMVI
UACC-62 = test system: UACC-62
IGROV-1 = test system: IGROV-1
M14 = test system: M14
KM12 = test system: KM12
EKVX = test system: EKVX
OVCAR-5 = test system: OVCAR-5
NCI-H23 = test system: NCI-H23
SNB-19 = test system: SNB-19
MCF7 = test system: MCF7
A498 = test system: A498
PC-3 = test system: PC-3
Hs-578T = test system: Hs-578T
SK-MEL-2 = test system: SK-MEL-2
COLO 205 = test system: COLO 205
SR = test system: SR
Malme-3M = test system: Malme-3M
NCI-H522 = test system: NCI-H522
NCI-H460 = test system: NCI-H460
SF-539 = test system: SF-539

Q: With Cc1ccsc1/C=N/Nc1nc2ccccc2s1 as the compound, how does the GI50 (OVCAR-4) read?
A: 19.7 µM (inactive)

Q: What about the GI50 (MDA-MB-435) of the same compound?
A: 70.1 µM (inactive)

Q: And the GI50 (RPMI-8226)?
A: 19.4 µM (inactive)

Q: And the GI50 (SNB-75)?
A: 20.5 µM (inactive)

Q: And the GI50 (SF-295)?
A: 10.6 µM (inactive)

Q: And the GI50 (RXF 393)?
A: 6.27 µM (inactive)

Q: And the GI50 (DU-145)?
A: 26.8 µM (inactive)

Q: And the GI50 (SW-620)?
A: 25 µM (inactive)

Q: What about the GI50 (NCI-H226) of the same compound?
A: 19.4 µM (inactive)

Q: What about the GI50 (OVCAR-8) of the same compound?
A: 23 µM (inactive)

Q: And the GI50 (CAKI-1)?
A: 15.5 µM (inactive)

Q: And the GI50 (MDA-MB-231)?
A: 12.8 µM (inactive)

Q: What about the GI50 (SK-OV-3) of the same compound?
A: 12.5 µM (inactive)

Q: What about the GI50 (UO-31) of the same compound?
A: 20.8 µM (inactive)

Q: And the GI50 (HOP-62)?
A: 8.99 µM (inactive)

Q: What about the GI50 (MDA-N) of the same compound?
A: 34.8 µM (inactive)

Q: And the GI50 (SK-MEL-28)?
A: 25.1 µM (inactive)

Q: What about the GI50 (CCRF-CEM) of the same compound?
A: 15.4 µM (inactive)

Q: What about the GI50 (786-0) of the same compound?
A: 12.3 µM (inactive)

Q: What about the GI50 (HCT-116) of the same compound?
A: 11.2 µM (inactive)

Q: What about the GI50 (SK-MEL-5) of the same compound?
A: 20.9 µM (inactive)

Q: What about the GI50 (ACHN) of the same compound?
A: 14 µM (inactive)

Q: What about the GI50 (UACC-257) of the same compound?
A: 20.4 µM (inactive)

Q: What about the GI50 (TK-10) of the same compound?
A: 13.9 µM (inactive)

Q: What about the GI50 (T47D) of the same compound?
A: 48.8 µM (inactive)

Q: What about the GI50 (K562) of the same compound?
A: 14.7 µM (inactive)

Q: And the GI50 (SN12C)?
A: 13.3 µM (inactive)

Q: What about the GI50 (BT-549) of the same compound?
A: 71.3 µM (inactive)

Q: What about the GI50 (HOP-92) of the same compound?
A: 13.4 µM (inactive)

Q: What about the GI50 (SF-268) of the same compound?
A: 21.4 µM (inactive)

Q: What about the GI50 (HT-29) of the same compound?
A: 34.6 µM (inactive)

Q: What about the GI50 (U-251) of the same compound?
A: 13.5 µM (inactive)

Q: And the GI50 (HCT-15)?
A: 50.5 µM

Q: What about the GI50 (A549) of the same compound?
A: 16.3 µM (inactive)

Q: What about the GI50 (HCC 2998) of the same compound?
A: 63.2 µM (inactive)

Q: And the GI50 (NCI/ADR-RES)?
A: 21.4 µM (inactive)

Q: What about the GI50 (OVCAR-3) of the same compound?
A: 12.9 µM (inactive)

Q: And the GI50 (MOLT-4)?
A: 16.2 µM (inactive)

Q: What about the GI50 (LOX IMVI) of the same compound?
A: 23.9 µM (inactive)

Q: What about the GI50 (UACC-62) of the same compound?
A: 27.9 µM (inactive)

Q: What about the GI50 (IGROV-1) of the same compound?
A: 11 µM (inactive)

Q: And the GI50 (M14)?
A: 28.1 µM (inactive)

Q: And the GI50 (KM12)?
A: 24.2 µM (inactive)

Q: What about the GI50 (EKVX) of the same compound?
A: 19.3 µM (inactive)

Q: What about the GI50 (OVCAR-5) of the same compound?
A: 40.9 µM (inactive)

Q: What about the GI50 (NCI-H23) of the same compound?
A: 31.8 µM (inactive)

Q: And the GI50 (SNB-19)?
A: 12.8 µM (inactive)

Q: What about the GI50 (MCF7) of the same compound?
A: 11.5 µM (inactive)

Q: What about the GI50 (A498) of the same compound?
A: 2.35 µM (inactive)

Q: What about the GI50 (PC-3) of the same compound?
A: 14.3 µM (inactive)

Q: And the GI50 (Hs-578T)?
A: 23.2 µM (inactive)

Q: What about the GI50 (SK-MEL-2) of the same compound?
A: 26.2 µM (inactive)

Q: What about the GI50 (COLO 205) of the same compound?
A: 35.2 µM (inactive)

Q: Which GI50 (OVCAR-4) does the source give for COC(=O)C(CNC(=O)/C=C/c1ccc(OC(C)=O)c(OC(C)=O)c1)NC(=O)/C=C/c1ccc(OC(C)=O)c(OC(C)=O)c1 (centres undefined) here?
A: > 100 µM (inactive)

Q: What about the GI50 (MDA-MB-435) of the same compound?
A: > 100 µM (inactive)

Q: And the GI50 (SR)?
A: 92.9 µM (inactive)

Q: What about the GI50 (RPMI-8226) of the same compound?
A: > 100 µM (inactive)

Q: And the GI50 (SF-295)?
A: > 100 µM (inactive)

Q: What about the GI50 (RXF 393) of the same compound?
A: > 100 µM (inactive)

Q: What about the GI50 (DU-145) of the same compound?
A: > 100 µM (inactive)

Q: And the GI50 (Malme-3M)?
A: > 100 µM (inactive)

Q: And the GI50 (NCI-H522)?
A: 32.1 µM (inactive)

Q: And the GI50 (SW-620)?
A: > 100 µM (inactive)

Q: And the GI50 (NCI-H226)?
A: > 100 µM (inactive)

Q: And the GI50 (OVCAR-8)?
A: > 100 µM (inactive)

Q: What about the GI50 (CAKI-1) of the same compound?
A: > 100 µM (inactive)

Q: And the GI50 (MDA-MB-231)?
A: > 100 µM (inactive)

Q: What about the GI50 (SK-OV-3) of the same compound?
A: 57.5 µM (inactive)

Q: And the GI50 (UO-31)?
A: > 100 µM (inactive)

Q: What about the GI50 (NCI-H460) of the same compound?
A: > 100 µM (inactive)

Q: What about the GI50 (HOP-62) of the same compound?
A: > 100 µM (inactive)

Q: And the GI50 (MDA-N)?
A: > 100 µM (inactive)

Q: What about the GI50 (SK-MEL-28) of the same compound?
A: > 100 µM (inactive)

Q: What about the GI50 (CCRF-CEM) of the same compound?
A: 42.4 µM (inactive)

Q: And the GI50 (786-0)?
A: > 100 µM (inactive)

Q: And the GI50 (HCT-116)?
A: > 100 µM (inactive)

Q: What about the GI50 (SK-MEL-5) of the same compound?
A: > 100 µM (inactive)

Q: What about the GI50 (ACHN) of the same compound?
A: > 100 µM (inactive)

Q: What about the GI50 (UACC-257) of the same compound?
A: > 100 µM (inactive)

Q: What about the GI50 (TK-10) of the same compound?
A: > 100 µM (inactive)

Q: What about the GI50 (T47D) of the same compound?
A: 77.3 µM (inactive)

Q: And the GI50 (K562)?
A: 64.1 µM (inactive)

Q: What about the GI50 (SN12C) of the same compound?
A: > 100 µM (inactive)

Q: And the GI50 (BT-549)?
A: > 100 µM (inactive)

Q: And the GI50 (HOP-92)?
A: > 100 µM (inactive)

Q: And the GI50 (SF-268)?
A: > 100 µM (inactive)

Q: What about the GI50 (HT-29) of the same compound?
A: > 100 µM (inactive)

Q: What about the GI50 (U-251) of the same compound?
A: 88.7 µM (inactive)

Q: And the GI50 (HCT-15)?
A: > 100 µM

Q: And the GI50 (A549)?
A: > 100 µM (inactive)

Q: And the GI50 (HCC 2998)?
A: > 100 µM (inactive)

Q: And the GI50 (OVCAR-3)?
A: > 100 µM (inactive)

Q: What about the GI50 (MOLT-4) of the same compound?
A: 30 µM (inactive)

Q: And the GI50 (LOX IMVI)?
A: > 100 µM (inactive)

Q: And the GI50 (UACC-62)?
A: > 100 µM (inactive)

Q: What about the GI50 (IGROV-1) of the same compound?
A: > 100 µM (inactive)

Q: And the GI50 (M14)?
A: > 100 µM (inactive)

Q: And the GI50 (KM12)?
A: > 100 µM (inactive)

Q: And the GI50 (EKVX)?
A: > 100 µM (inactive)

Q: And the GI50 (OVCAR-5)?
A: > 100 µM (inactive)

Q: What about the GI50 (NCI-H23) of the same compound?
A: > 100 µM (inactive)

Q: What about the GI50 (SNB-19) of the same compound?
A: 93.3 µM (inactive)

Q: What about the GI50 (MCF7) of the same compound?
A: > 100 µM (inactive)

Q: And the GI50 (SF-539)?
A: > 100 µM (inactive)

Q: And the GI50 (A498)?
A: > 100 µM (inactive)

Q: And the GI50 (PC-3)?
A: > 100 µM (inactive)

Q: And the GI50 (Hs-578T)?
A: > 100 µM (inactive)

Q: And the GI50 (SK-MEL-2)?
A: > 100 µM (inactive)

Q: What about the GI50 (COLO 205) of the same compound?
A: > 100 µM (inactive)

Reference: ChEMBL document CHEMBL1201862, “PubChem BioAssay data set” (2004)
